Measured values from paper PMC5414976, “Reduction of reactive red 241 by oxygen insensitive azoreductase purified from a novel strain Staphylococcus KU898286” (PLoS ONE, 2017).

System: T1, azoreductase
T1 construct: native enzyme purified from strain S1 cells (sonication, ammonium sulphate, Sephadex G-100); 29 kDa by SDS-PAGE
Test: dye decolourisation at […] nm, Lineweaver-Burk
Format: biochemical, Staphylococcus aureus

NC(=O)C1=CN([C@@H]2O[C@H](COP(=O)(O)OP(=O)(O)OC[C@H]3O[C@@H](n4cnc5c(N)ncnc54)[C@H](O)[C@@H]3O)[C@@H](O)[C@H]2O)C=CC1 [NADH]
Km (0.5 mM RR241, NADH varied): 1020 µM

O=S(=O)(O)OCCS(=O)(=O)c1ccc(Nc2nc(Cl)nc(Nc3cc(S(=O)(=O)O)cc4cc(S(=O)(=O)O)c(N=Nc5ccc6c(S(=O)(=O)O)cccc6c5S(=O)(=O)O)c(O)c34)n2)cc1 [RR241, reactive red 241]
Km (constant NADH 1 mM (text; legend of Fig 4a says absence of NADH)): 1540 µM
